Results on 13 molecules are retold here after US4440784A, “Anti-inflammatory, analgesic, and antipyretic pharmaceutical composition” (Kanegafuchi Chemical Industry Company, Ltd., priority 1981, dated 1984).

The test system of series [1] is acetic acid-induced writhing in mice. Briefly: acetic acid-induced writhing in mice (analgesic activity). It is filed as in vivo, male ddY strain mice. The conditions noted are these: po. The protocol: An analgesic activity was evaluated by the method of acetic acid-induced writhing in mice [R. Koster et al., Federation Proc., 18, 412 (1959)]. Ten male ddY strain mice weighing 20~25 g were used in each group. Test compounds suspended in 2.5% acacia were administered p.o. to the mice. One hour later, the mice were injected i.p. with 0.6% acetic acid in a volume of 0.1 ml/10 g body weight. The number of writhes in each of mice was counted for 20 minutes after the injection of the acetic acid. Percent inhibition was calculated by the following equation. [formula]
(In writhing tests, fewer writhes than in controls are read as antinociception.)

A short description of series [2]: toxicity test in mice (LD50). Particulars: in vivo, po; mouse, 14 days observation. The protocol: Female ICR strain mice weighing 20~25 g in groups of six each were used for toxicity tests. Test compounds suspended in 2.5% acacia were administered p.o. to the mice. The animals were observed daily for 14 days after the administration. The LD50 values were estimated from mortality (No. of dead mice/No. of mice used).

The subject of series [3] is carrageenan-induced paw edema in rats. As to the kind of experiment: carrageenan-induced paw edema in rats (acute anti-inflammatory activity). Type of series: in vivo, male Wistar strain rats. Particulars: po; for inhibition in vivo at 50 mg/kg / inhibition in vivo at 100 mg/kg: rat, p.o.; for inhibition in vivo at 5 mg/kg: Rattus norvegicus. The protocol: (1) An acute anti-inflammatory activity was evaluated by the method of carrageenan-induced paw edema in rats [C. A. Winter et al., Proc. Soc. […] Six male Wistar strain rats weighing 150~180 g were used in each group. […] The volume of each paw edema was measured 3 and 5 hours after the injection of carrageenan. Percent edema inhibition was calculated by the following equation. [formula]

The test system of series [4] is yeast-induced fever in rats. As to the kind of experiment: yeast-induced fever in rats (antipyretic activity). Type of series: in vivo, male Wistar strain rats. Particulars: po; for inhibition in vivo at 50 mg/kg / inhibition in vivo at 100 mg/kg: rat, p.o.; for inhibition in vivo at 5 mg/kg: Rattus norvegicus. How it is done:
Five male Wistar strain rats weighing 150~180 g were used in each group. A 20% Baker's yeast suspension in 0.9% NaCl was injected s.c. into the dorsal region of rats in a volume of 1 ml/100 g body weight. […] The rectal temperature was determined with a thermometer, 1, 3 and 5 hours after the administration of test compounds. Percent inhibition was calculated by the following equation. [formula]

Series [5] relates to paper disk-induced granuloma in rats. As to the kind of experiment: paper disk-induced granuloma in rats (sub-chronic anti-inflammatory activity). Type of series: in vivo, male Wistar strain rats. The conditions noted are these: rat, p.o. once daily for 7 days. The protocol: Six male Wistar strain rats weighing 150~180 g were used in each group. Each paper disk (29±1 mg) was implanted s.c. into the bilateral area of the scapula of rats under anesthesia with amobarbital sodium. […] The rats were killed on day 7, at which time the paper disks with surrounding granulomatous tissues were removed and dried to constant weight overnight, and weighed. Percent inhibition was calculated by the following equation. [formula]

Series [6] relates to adjuvant-induced arthritis in rats. Briefly: adjuvant-induced arthritis in rats (chronic anti-inflammatory activity). It is filed as in vivo, male Sprague-Dawley strain rats. Particulars: rat, p.o. once daily. How it is done: (3) A chronic anti-inflammatory activity was evaluated by the method of adjuvant-induced arthritis in rats [D. T. Walz et al., J. Pharmacol. and Exp. Ther., 178, 223 (1971)]. Eight male Sprague-Dawley strain rats weighing 190~230 g were used in each group. Into the left hind paw of rats was injected i.d. 0.5 mg of Mycobacterium butyricum suspended in 0.05 ml of paraffin oil. Test compounds suspended in 2.5% acacia were administered p.o. once daily for 21 days, starting on the day of the injection of an adjuvant (day 0). Paw volumes of adjuvant-injected and uninjected feet were measured on day 14 and on day 21. Percent inhibition was calculated by the following equation. [formula]

Setting [7] is: 3 hours after carrageenan, read-out: Percent edema inhibition, 3 hours.
The mark [8] stands for this setting: 5 hours after carrageenan, read-out: Percent edema inhibition, 5 hours.
Where [9] appears, read: 1 hour after administration, read-out: Inhibition (fever), 1 hour.
Setting [10] is: 3 hours after administration, read-out: Inhibition (fever), 3 hours.
The mark [11] stands for this setting: 5 hours after administration, read-out: Inhibition (fever), 5 hours.
The mark [12] stands for this setting: mouse, p.o., 100 mg/kg, 1 hour before acetic acid i.p., read-out: Inhibition (writhing).
Setting [13] is: Mus musculus, read-out: Inhibition (writhing).

Each structure is given as a SMILES string. Read-outs that look alike come from different tables or passages of the source.

What is called LD50 is the dose expected to kill half of the subjects tested. As for `CC(C)(C)c1cc(C=C(C#N)S(C)(=O)=O)cc(C(C)(C)C)c1O` [Compound XI, β-Methylsulfonyl-β-cyano-3,5-di-tert-butyl-4-hydroxystyrene], the inhibition in vivo at 50 mg/kg in series [1] (mouse, p.o., 50 mg/kg, 1 hour before acetic acid i.p.) turned out to be 31.6%; in series [3] (setting [7]), 35.1%; in series [3] (setting [8]), 18.3%; in series [4] (setting [9]), 23.2%; in series [4] (setting [10]) it was 31.2%; in series [4] (setting [11]) it was 19.9%. In series [2], the LD50 at 336 h is 250 to 500 mg/kg.
On to `CC(C)(C)c1cc(C=CC(N)=O)cc(C(C)(C)C)c1O` [Compound VIII, β-Carbamoyl-3,5-di-tert-butyl-4-hydroxystyrene], for which the inhibition in vivo at 100 mg/kg in series [1] (setting [12]) was 25.8%; in series [4] (setting [9]), 19.9%; in series [4] (setting [10]), 25.9%; in series [4] (setting [11]) it was 16.9%. This molecule displayed an LD50 at 336 h in series [2] of over 1000 mg/kg. The inhibition in vivo at 50 mg/kg in series [3] (setting [7]) was found to be 17.6%; in series [3] (setting [8]), 14.6%.
Take `CC(C)(C)c1cc(C=CC(=O)c2ccccc2)cc(C(C)(C)C)c1O` [Compound VII, β-Benzoyl-3,5-di-tert-butyl-4-hydroxystyrene]: the inhibition in vivo at 100 mg/kg amounted to 33% in series [1] (setting [12]), 15.9% in series [4] (setting [9]), 27.7% in series [4] (setting [10]) and 21.4% in series [4] (setting [11]). Also, the LD50 at 336 h in series [2] is over 1000 mg/kg. For the same molecule, the inhibition in vivo at 50 mg/kg in series [3] (setting [7]) worked out at 16.9%; in series [3] (setting [8]), 19.7%.
Turning to `COc1ccc2c(c1)c(CC(=O)O)c(C)n2C(=O)c1ccc(Cl)cc1` [Indomethacin, reference compound], the inhibition in vivo at 5 mg/kg in series [1] (setting [13]) came out at 62.7%; in series [3] (3 h, read-out: Percent edema inhibition, 3 hours), 32.8%; in series [3] (5 h, read-out: Percent edema inhibition, 5 hours), 39.2%; in series [4] (1 h, read-out: Inhibition (fever), 1 hour), 35.4%; in series [4] (3 h, read-out: Inhibition (fever), 3 hours), 56.4%; in series [4] (5 h, read-out: Inhibition (fever), 5 hours) it was 66.2%. Besides, the figures for the “Inhibition (granuloma)” value in series [5] (1.25 mg/kg/day) and in series [5] (5 mg/kg/day) were 14.0% and 25.5%, respectively.
On to `COC(=O)C(=Cc1cc(C(C)(C)C)c(O)c(C(C)(C)C)c1)CCO` [Compound II, β-Methoxycarbonyl-β-(2-hydroxyethyl)-3,5-di-tert-butyl-4-hydroxystyrene], for which the inhibition in vivo at 100 mg/kg in series [1] (setting [12]) stood at 79.8%; in series [4] (setting [9]) it was 42.5%; in series [4] (setting [10]) it was 64.5%; in series [4] (setting [11]) it was 59.7%. In addition, in series [2], the LD50 at 336 h is over 1000 mg/kg. The inhibition in vivo at 50 mg/kg turned out to be 52.1% in series [3] (setting [7]) and 41.7% in series [3] (setting [8]).
With `CCCCC1C(=O)N(c2ccccc2)N(c2ccccc2)C1=O` [Phenylbutazone, reference compound], the “Inhibition (granuloma)” value in series [5] (25 mg/kg/day) is listed as 5.6%; in series [5] (100 mg/kg/day) it was 24.2%. Besides, the inhibition in vivo at 100 mg/kg in series [3] (setting [7]) stood at 23.6%; in series [3] (setting [8]), 28.9%.
Consider `CCC(=Cc1cc(C(C)(C)C)c(O)c(C(C)(C)C)c1)C(=O)O` [Compound III, β-Carboxy-β-ethyl-3,5-di-tert-butyl-4-hydroxystyrene], for which the inhibition in vivo at 100 mg/kg was found to be 28.2% in series [1] (setting [12]), 14.6% in series [4] (setting [9]), 31.8% in series [4] (setting [10]) and 19.5% in series [4] (setting [11]). The same molecule had an LD50 at 336 h in series [2] of over 1000 mg/kg. In addition, the inhibition in vivo at 50 mg/kg in series [3] (setting [7]) stood at 12.1%; in series [3] (setting [8]) it was 18.3%.
As to `CCOC(=O)C(=Cc1cc(C(C)(C)C)c(O)c(C(C)(C)C)c1)C(C)=O` [Compound IV, β-Ethoxycarbonyl-β-acetyl-3,5-di-tert-butyl-4-hydroxystyrene], the inhibition in vivo at 100 mg/kg was determined as 56.9% in series [1] (setting [12]), 23% in series [4] (setting [9]), 40.9% in series [4] (setting [10]) and 41.6% in series [4] (setting [11]). The LD50 at 336 h in series [2] is over 1000 mg/kg. Also, the results for the inhibition in vivo at 50 mg/kg in series [3] (setting [7]) and in series [3] (setting [8]) were 30.3% and 28.4%, respectively.
Take `CC(C)(C)c1cc(C=C[N+](=O)[O-])cc(C(C)(C)C)c1O` [Compound X, β-Nitro-3,5-di-tert-butyl-4-hydroxystyrene]: the inhibition in vivo at 100 mg/kg in series [1] (setting [13]) was determined as 24.4%; in series [4] (setting [9]), 18.6%; in series [4] (setting [10]) it was 30.5%; in series [4] (setting [11]), 23.4%. For the same molecule, the LD50 at 336 h in series [2] was over 1000 mg/kg. Further, the figures for the inhibition in vivo at 50 mg/kg in series [3] (setting [7]) and in series [3] (setting [8]) were 11% and 17.3%, respectively.
Take `CC(=O)Oc1ccccc1C(=O)O` [Aspirin, reference compound]: the inhibition in vivo at 100 mg/kg in series [1] (setting [13]) was 38%.
With `CC(C)Cc1ccc(C(C)C(=O)O)cc1` (stereo not drawn) [Ibuprofen, reference compound], in series [6] (12.5 mg/kg/day), the “Inhibition, injected foot, Day 14” value is given as -2.6%; the “Inhibition, injected foot, Day 21” value is -17.4%; the “Inhibition, uninjected foot, Day 14” value came out at 13.5%; the “Inhibition, uninjected foot, Day 21” value is listed as -7.4%. For the same molecule, in series [6] (50 mg/kg/day), the “Inhibition, injected foot, Day 14” value is -1.7%; the “Inhibition, injected foot, Day 21” value was determined as 28.7%; the “Inhibition, uninjected foot, Day 14” value was found to be 32.4%; the “Inhibition, uninjected foot, Day 21” value was found to be 44.4%.
For the molecule `CC(=O)C(C)=Cc1cc(C(C)(C)C)c(O)c(C(C)(C)C)c1` [Compound VI, β-Acetyl-β-methyl-3,5-di-tert-butyl-4-hydroxystyrene], the inhibition in vivo at 100 mg/kg in series [1] (setting [12]) worked out at 47.8%; in series [4] (setting [9]), 38.1%; in series [4] (setting [10]), 45.5%; in series [4] (setting [11]) it was 41.6%. The molecule also yielded an LD50 at 336 h in series [2] of over 1000 mg/kg. The inhibition in vivo at 50 mg/kg in series [3] (setting [7]) worked out at 32.5%; in series [3] (setting [8]) it was 20.7%.
Turning to `CC(C)(C)c1cc(C=C(CCO)C(=O)O)cc(C(C)(C)C)c1O` [Compound I, β-Carboxy-β-(2-hydroxyethyl)-3,5-di-tert-butyl-4-hydroxystyrene], the inhibition in vivo at 100 mg/kg in series [1] (setting [12]) turned out to be 74.5%; in series [4] (setting [9]), 53.1%; in series [4] (setting [10]), 98.9%; in series [4] (setting [11]), 70.3%. In series [2], this molecule had an LD50 at 336 h of over 1000 mg/kg. Also, the inhibition in vivo at 50 mg/kg in series [3] (setting [7]) came out at 44.6%; in series [3] (setting [8]) it was 41.6%.
